Patent publication US20060189546A1, “Compounds for treating autoimmune and demyelinating diseases” (priority 2005, published 2006)

Columns and labels:
[1] = system: Experimental Autoimmune Encephalomyelitis (EAE); type: in vivo, guinea pig
Experimental: Following disease induction, as previously described, the animals were randomized into 5 five cohorts, one vehicle control and 4 treatment cohorts. Animals in the treatment cohorts were administered study drug intraperitoneally at 20 mg/kg (Symadex™dihydrochloride trihydrate) once a week for 4, 6 and 8 weeks, with an additional cohort treated once a week for 4 weeks and observed for an additional 4 weeks of treatment with vehicle solution (saline) rather than with drug.
The only significant protocol deviation from the method of Example 2 was that the pool of immunized animals was culled of animals presenting with a disease severity greater than 2 and randomized so that the mean disease severity of each cohort was matched in the severity score range of 1 to 1.5. This measure was invoked in order to avoid the chance circumstance, observed in Example 2, that animal selected for treatment should start treatment with a more severe presentation than the corresponding vehicle controls.

T-lymphocyte cells = assay: Cell Proliferation, T-Cell + Con A ([3H]thymidine incorporation); type: cell-based, balb/c mice; conditions: Mus musculus
Experimental: T-lymphocyte cells isolated from thymus of balb/c mice weighing 17±1 g were used. Test compound and/or vehicle is incubated with the cells (4×10^6/ml) in the presence of 3 μg/mL Concanavalin A (Con A) in AIM-V medium pH 7.4 at 37° C. for 24 hours. [^3H]Thymidine (120 nM) was then added for an additional overnight incubation period. Thymidine incorporation was assessed by liquid scintillation counting.
Test compound-induced suppression of cell proliferation by 50 percent or more (≧50%) relative to vehicle control response indicates significant inhibitory activity.

HT29 cell line = assay: GI50 concentration in HT29 cells; type: cell-based; conditions: Homo sapiens, HT-29
[2] = system: Experimental Autoimmune Encephalomyelitis (EAE); assay: Chronic-progressive EAE, weekly treatment for 4 weeks (Example 2); type: in vivo, Hartley guinea pigs
Experimental: In the present experiment, female juvenile Hartley guinea pigs (225 g) were immunized with homogenized whole CNS (in saline) with an equal amount of complete Freund's Adjuvant and 10 mg added killed M. tuberculosis. The animals (>95%) show clinical signs starting on day 7 post immunization. An acute event of varying severity occurs between day 7 and day 20 followed by a continuous accumulation of clinical abnormality with hind limb paralysis, fecal impaction and incontinence. […] These clinical features indicate inflammation-induced lumbar spinal cord demyelination.
In these experiments, the immunized animals were nursed until day 40 or day 52 and then treated with 8 mg/kg and 16 mg/kg Symadex™ (intra cardiac), or 20 mg/kg and 40 mg/kg Symadex™ (i.p.) once a week for 4 weeks. Controls were given vehicle. Clinical signs were scored daily and the weights recorded. At the completion of the treatment period, the brain and spinal cord were dissected, formalin fixed and blocked for routine pathological examination of meningeal inflammation, perivascular infiltration (cuffing), parenchymal myelitis and demyelination by a blinded observer using hematoxylin-eosin and solochrome R cyanin stained sections.
Untreated, chronic EAE animals (n=5) were sacrificed on day 40, as well as non-EAE controls (n=5). Following each 10-day treatment interval, five animals from each group were sacrificed (0.25 ml sodium pentobarbital), blood samples were collected for FACS analysis (see below), and the brain and spinal cord dissected and sectioned. Three spinal sections were used, corresponding to lumbar, thoracic and cervical regions of the cord. The brain was cut into five transverse sections; the first three proximal sections were combined in one block, and the last two distal sections in another. Tissues were fixed in 10% formalin and embedded in paraffin. Five micrometer sections were stained with hematoxylin-eosin (H-E) or solochrome-R-cyanin (SCR) and evaluated by a blinded observer in each of the four categories: meningeal inflammation, perivascular infiltration, encephalitis or myelitis and demyelination (Table 2). The combined pathological score represents the total score (out of a potential 20) from all five CNS sections in each animal.
To quantify the abnormalities observed in the spinal cord, sections stained with H-E were divided into 12 representative pie-shaped areas. In each area, the number of cells within a 0.12-mm^2 field of view was counted using Sigma Scan Pro image analysis software (SPSS), and the combined mean number of cell in all 12 areas was calculated for the whole spinal cord (36 fields of view per animal). Note that as all cell nuclei were counted, the number of cells may include neurons and glial cells in addition to infiltrates.

[3] = system: Collagen Antibody Induced Arthritis; assay: Collagen monoclonal antibody (mABs) + LPS induced arthritis, hind paw volume; type: in vivo, BALB/c strain mice; conditions: for increase in hind paw volume: oral once daily for 3 days, 30 mg/kg
Experimental: Groups of 3 BALB/c strain mice, 6-7 weeks of age, were used for the induction of arthritis by monoclonal antibodies (mABs) raised against type II collagen, plus lipopolysaccharide (LPS). A combination of 4 different mABs (D8, F10, DI-2G and A2) totaling 4 mg/mouse was administered to the animal intravenously on day 0, followed by intravenous challenge with […] of LPS 72 hours later (day 3). From day 3, test substance and vehicle were each administered orally once daily for 3 consecutive days. For each animal, volumes of both hind paws were measured using a plethysmometer with water cell (12 mm diameter) on Days 0, 5, 7, 10, 14 and 17. Percent inhibition of increase in volume induced by mABs+LPS was calculated by the following formula: Inhibition (%): [1−(Tn−T0)/(Cn−C0)]×100% Where: […]
C0(Cn): volume of day 0 (day n) in vehicle control
T0(Tn): volume of day 0 (day n) in test compound-treated group
Reduction of edema in the hind paws by 30% or more is considered significant.

[4] = system: Experimental Autoimmune Encephalomyelitis (EAE); assay: Acute EAE, daily dosing for 15 days (Example 5); type: in vivo, guinea pigs
Experimental: Accordingly, three randomized cohorts of guinea pigs with EAE induced by the method of Example 2, were treated, respectively, with 6 mg/kg of Symadex™ (full salt hydrate) and 0.35 mg/kg of mitoxantrone. Animals were treated daily, by intraperitoneal injection, for 15 days, starting on day 7 post immunization. Controls were treated with vehicle. We reasoned that 15 consecutive, 6 mg/kg doses of Symadex™ would represent a level of drug exposure that would be commensurate with the “20 mg/kg every 72 hours” regimen in Example 4 and consistent with a mid level exposure between the 20 mg/kg and the 40 mg/kg schedule given weekly, in Example 2. The mitoxantrone dose was selected to reflect a typical high dose given to rats or mice by daily dosing in the prior art, but allometrically scaled to the guinea pig.

[5] = CNS histopathology after treatment
[6] = necropsy after 15 daily doses, Symadex 6 mg/kg, mitoxantrone 0.35 mg/kg

`CCN(CC)CCNc1ccc2ncn3c4ccc(O)cc4c(=O)c1c23` [Symadex™, 5-[[(diethylamino)ethyl]amino]-8-hydroxyimidazo[4,5,1-de]-acridine-6-one] was tested, and the “clinical scores after drug withdrawal” value ([1]; 20 mg/kg i.p. once a week for 4 weeks, then 4 weeks vehicle) was “remained in stable disease at the time of discontinuation”, the “mean clinical severity score” value ([1]; 20 mg/kg i.p. once a week, 4-week treatment cycle, starting mean 1.3) was 0.7 and the mean severity score ([1]; 20 mg/kg i.p. once a week, 6 week treatment course, control 1.3) was 0.3. For the same compound, the clinical scores ([1]; 20 mg/kg i.p., 8 consecutive weekly doses) was “converges on baseline at the end of the treatment course”, the IC50 (T-lymphocyte cells; T-Cell + Con A) was 14 nM and the inhibition at 0.001 µM (T-lymphocyte cells; T-Cell + Con A, 1 nM, read-out: % Growth Inhibition) was 10%. The inhibition at 0.01 µM (T-lymphocyte cells; T-Cell + Con A, 10 nM, read-out: % Growth Inhibition) was 44%, the inhibition at 0.1 µM (T-lymphocyte cells; T-Cell + Con A, 0.1 μM, read-out: % Growth Inhibition) was 82% and the inhibition at 1 µM (T-lymphocyte cells; read-out: % Growth Inhibition) was 103%. The inhibition at 10 µM (T-lymphocyte cells; read-out: % Growth Inhibition) was 104%, the GI50 (HT29 cell line) was 680 nM and the “time to clinical recovery from start of treatment” value ([2]; 40 mg/kg i.p. once a week) was ≤ 2 weeks. For the same compound, the “clinical progress and pathological findings” value ([2]; 20 and 40 mg/kg i.p. once a week for 4 weeks) was “profound and substantial change in the clinical progress and pathological findings”, the “cells in existing lesions” value [2, 5] was “profound loss of cells” and the “remyelination (myelin pallor)” value [2, 5] was “myelin pallor previously attributed to remyelination”. For the same compound, the “scores for meningeal inflammation and perivascular infiltration” value ([2]; treated groups vs vehicle controls, CNS histopathology) was “more severe in the treated groups than in vehicle controls”, the “increase in hind paw volume” value ([3]; day 5, vehicle 42%) was 32% and the “inhibition of increase in paw volume” value ([3]; day 10) was 61%. The “increase in hind paw volume” value ([3]; day 10, vehicle 75%) was 29%, the “inhibition of increase in paw volume” value ([3]; day 14) was 74% and the “increase in hind paw volume” value ([3]; day 14, vehicle 70%) was 18%. For the same compound, the “inhibition of increase in paw volume” value ([3]; day 17) was 59%, the “increase in hind paw volume” value ([3]; day 17, vehicle 47%) was 19% and the “clinical score (neurological impairment)” value ([4]; daily i.p. for 15 days from day 7, Symadex 6 mg/kg, mitoxantrone 0.35 mg/kg) was “the initial rise in neurological impairment is arrested”. For the same compound, the “weight gain profile vs vehicle controls, statistical significance” value ([4]; guinea pig, in vivo) was “did not show statistical significance”, the “reduction of meningeal inflammation (M) pathology score” value [4, 6] was “does not” and the “reduction of perivascular cuffing (P), myelitis (E) and demyelination (D) pathology scores” value [4, 6] was “statistically significant differences (p value<0.05) from control”.
